# Tests used:
# barnyardgrass [1] = assay: Test A pre-/postemergence herbicide test; type: in vivo, Echinochloa crus-galli
# Procedure, shortened: (§1)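 Scoring was visual, relative to untreated controls, on a 0–100 scale after about 10 greenhouse days. Preemergence treatment used a directed soil spray over seeded loam/sand; postemergence treatment targeted one- to two-leaf plants of 2–10 cm.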
# kochia = assay: Test A pre-/postemergence herbicide test; type: in vivo, Kochia scoparia
# Procedure, shortened: as §1
# ragweed = assay: Test A pre-/postemergence herbicide test; type: in vivo, Ambrosia elatior
# Procedure, shortened: as §1
# ryegrass, Italian = assay: Test A pre-/postemergence herbicide test; type: in vivo, Lolium multiflorum
# Procedure, shortened: as §1
# giant foxtail = assay: Test A pre-/postemergence herbicide test; type: in vivo, Setaria faberii
# Procedure, shortened: as §1
# pigweed = assay: Test A pre-/postemergence herbicide test; type: in vivo, Amaranthus retroflexus
# Procedure, shortened: as §1
# wheat = assay: Test A pre-/postemergence herbicide test; type: in vivo, Triticum aestivum; conditions: Postemergence
# Procedure, shortened: as §1
# corn = assay: Test A pre-/postemergence herbicide test; type: in vivo, Zea mays; conditions: Postemergence
# Procedure, shortened: as §1
# blackgrass = assay: Test A postemergence herbicide test; type: in vivo, Alopecurus myosuroides
# Procedure, shortened: (§2)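 Plants at the one- to two-leaf stage, 2–10 cm tall, grown in loam/sand pots, received postemergence sprays of the test chemicals. After about 10 days in the greenhouse, injury was scored visually against untreated controls on a 0–100 scale (0 none, 100 complete control).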
# galium = assay: Test A postemergence herbicide test; type: in vivo, Galium aparine
# Procedure, shortened: as §2
# rice = assay: Test B flooded paddy test; type: in vivo, Oryza sativa; conditions: 500 g ai/ha, Flood; scale of 0 to 100 where 0 is no effect and 100 is complete control
# Procedure, shortened: (§3)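 Treatment was made at the 2-leaf stage by dosing the standing floodwater, kept 3 cm above soil level for the whole test. Greenhouse exposure lasted 13 to 15 days. Response is a visual percent rating relative to controls, where a dash indicates no test result.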
# sedge, umbrella = assay: Test B flooded paddy test; type: in vivo, Cyperus difformis; conditions: 500 g ai/ha, Flood; scale of 0 to 100 where 0 is no effect and 100 is complete control
# Procedure, shortened: as §3
# ducksalad = assay: Test B flooded paddy test; type: in vivo, Heteranthera limosa; conditions: 500 g ai/ha, Flood; scale of 0 to 100 where 0 is no effect and 100 is complete control
# Procedure, shortened: as §3
# barnyardgrass [2] = assay: Test B flooded paddy test; type: in vivo, Echinochloa crus-galli; conditions: 500 g ai/ha, Flood; scale of 0 to 100 where 0 is no effect and 100 is complete control
# Procedure, shortened: as §3
# [3] = 125 g ai/ha, visual rating, 0 to 100 scale, 0 no effect, 100 complete control, approximately 10 days, preemergence
# [4] = Postemergence, 125 g ai/ha, 0 to 100 scale, 0 is no effect, 100 is complete control
# [5] = preemergence, 500 g ai/ha, 0 to 100 scale, 0 is no effect and 100 is complete control
# [6] = 125 g ai/ha, 0 to 100 scale, 0 is no effect, 100 is complete control
# [7] = Postemergence, 125 g ai/ha, visual rating on 0 to 100 scale (0 no effect, 100 complete control), approx. 10 days
# [8] = Postemergence, 500 g ai/ha, 0 to 100 scale (0 no effect, 100 complete control)
# [9] = Preemergence, 125 g ai/ha, 0 to 100 scale where 0 is no effect and 100 is complete control
# [10] = 125 g ai/ha, visual rating on 0 to 100 scale (0 no effect, 100 complete control), approx. 10 days
# [11] = 500 g ai/ha, 0 to 100 scale (0 no effect, 100 complete control)
smiles,measurement,setting,value
Cc1ccccc1NC(=O)C1C(=O)NCC1c1ccc(OC(F)F)cc1 (centres unmarked) [Compound 227],"Plant response rating, Barnyardgrass",barnyardgrass [1]; [3],20
same,"Plant response rating, Barnyardgrass",barnyardgrass [1]; [4],20
same,"Barnyardgrass plant response rating (0 to 100 scale, 0 is no effect, 100 is complete control)","barnyardgrass [1]; Postemergence, 500 g ai/ha",80
same,"Plant response rating, Barnyardgrass",barnyardgrass [1]; [5],50
same,"Plant response rating, Kochia",kochia; [3],20
same,"Plant response rating, Kochia",kochia; [4],0
same,"Kochia plant response rating (0 to 100 scale, 0 is no effect, 100 is complete control)","kochia; Postemergence, 500 g ai/ha",40
same,"Plant response rating, Kochia",kochia; [5],20
same,"Plant response rating, Ragweed",ragweed; [3],0
same,"Plant response rating, Ragweed",ragweed; [4],0
same,"Ragweed plant response rating (0 to 100 scale, 0 is no effect, 100 is complete control)","ragweed; Postemergence, 500 g ai/ha",0
same,"Plant response rating, Ragweed",ragweed; [5],0
same,"Plant response rating, Ryegrass, Italian","ryegrass, Italian; [3]",0
same,"Plant response rating, Ryegrass, Italian","ryegrass, Italian; [4]",0
same,"Ryegrass, Italian plant response rating (0 to 100 scale, 0 is no effect, 100 is complete control)","ryegrass, Italian; Postemergence, 500 g ai/ha",20
same,"Plant response rating, Ryegrass, Italian","ryegrass, Italian; [5]",30
same,"Plant response rating, Foxtail, Giant",giant foxtail; [3],80
same,"Plant response rating, Foxtail, Giant",giant foxtail; [4],30
same,"Foxtail, Giant plant response rating (0 to 100 scale, 0 is no effect, 100 is complete control)","giant foxtail; Postemergence, 500 g ai/ha",80
same,"Plant response rating, Foxtail, Giant",giant foxtail; [5],90
same,"Plant response rating, Pigweed",pigweed; [3],0
same,"Plant response rating, Pigweed",pigweed; [4],0
same,"Pigweed plant response rating (0 to 100 scale, 0 is no effect, 100 is complete control)","pigweed; Postemergence, 500 g ai/ha",0
same,"Plant response rating, Pigweed",pigweed; [5],20
same,"Plant response rating, Wheat",wheat; [6],0
same,"Wheat plant response rating (0 to 100 scale, 0 is no effect, 100 is complete control)",wheat; 500 g ai/ha,0
same,"Plant response rating, Corn",corn; [6],0
same,"Corn plant response rating (0 to 100 scale, 0 is no effect, 100 is complete control)",corn; 500 g ai/ha,0
same,"Plant response rating, Blackgrass",blackgrass; [6],0
same,"Blackgrass plant response rating (0 to 100 scale, 0 is no effect, 100 is complete control)",blackgrass; 500 g ai/ha,40
same,"Plant response rating, Galium",galium; [6],0
same,"Galium plant response rating (0 to 100 scale, 0 is no effect, 100 is complete control)",galium; 500 g ai/ha,0
same,"Plant response rating, Rice",rice,0
same,"Plant response rating, Sedge, Umbrella","sedge, umbrella",0
same,"Plant response rating, Ducksalad",ducksalad,90
same,"Plant response rating, Barnyardgrass",barnyardgrass [2],0
CCCN1CC(c2ccc(C(F)(F)F)cc2)C(C(=O)Nc2ccccc2F)C1=O (centres unmarked) [Compound 181],"Plant response rating, Barnyardgrass",barnyardgrass [1]; [3],0
same,"Plant response rating, Barnyardgrass",barnyardgrass [1]; [4],0
same,"Barnyardgrass plant response rating (0 to 100 scale, 0 is no effect, 100 is complete control)","barnyardgrass [1]; Postemergence, 500 g ai/ha",0
same,"Plant response rating, Barnyardgrass",barnyardgrass [1]; [5],0
same,"Plant response rating, Kochia",kochia; [3],50
same,"Plant response rating, Kochia",kochia; [4],10
same,"Kochia plant response rating (0 to 100 scale, 0 is no effect, 100 is complete control)","kochia; Postemergence, 500 g ai/ha",70
same,"Plant response rating, Kochia",kochia; [5],80
same,"Plant response rating, Ragweed",ragweed; [3],0
same,"Plant response rating, Ragweed",ragweed; [4],0
same,"Ragweed plant response rating (0 to 100 scale, 0 is no effect, 100 is complete control)","ragweed; Postemergence, 500 g ai/ha",0
same,"Plant response rating, Ragweed",ragweed; [5],0
same,"Plant response rating, Ryegrass, Italian","ryegrass, Italian; [3]",0
same,"Plant response rating, Ryegrass, Italian","ryegrass, Italian; [4]",0
same,"Ryegrass, Italian plant response rating (0 to 100 scale, 0 is no effect, 100 is complete control)","ryegrass, Italian; Postemergence, 500 g ai/ha",0
same,"Plant response rating, Ryegrass, Italian","ryegrass, Italian; [5]",0
same,"Plant response rating, Foxtail, Giant",giant foxtail; [3],10
same,"Plant response rating, Foxtail, Giant",giant foxtail; [4],0
same,"Foxtail, Giant plant response rating (0 to 100 scale, 0 is no effect, 100 is complete control)","giant foxtail; Postemergence, 500 g ai/ha",0
same,"Plant response rating, Foxtail, Giant",giant foxtail; [5],70
same,"Plant response rating, Pigweed",pigweed; [3],0
same,"Plant response rating, Pigweed",pigweed; [4],0
same,"Pigweed plant response rating (0 to 100 scale, 0 is no effect, 100 is complete control)","pigweed; Postemergence, 500 g ai/ha",50
same,"Plant response rating, Pigweed",pigweed; [5],0
same,"Plant response rating, Wheat",wheat; [6],0
same,"Wheat plant response rating (0 to 100 scale, 0 is no effect, 100 is complete control)",wheat; 500 g ai/ha,0
same,"Plant response rating, Corn",corn; [6],0
same,"Corn plant response rating (0 to 100 scale, 0 is no effect, 100 is complete control)",corn; 500 g ai/ha,0
same,"Plant response rating, Blackgrass",blackgrass; [6],40
same,"Blackgrass plant response rating (0 to 100 scale, 0 is no effect, 100 is complete control)",blackgrass; 500 g ai/ha,50
same,"Plant response rating, Galium",galium; [6],0
same,"Galium plant response rating (0 to 100 scale, 0 is no effect, 100 is complete control)",galium; 500 g ai/ha,0
same,"Plant response rating, Rice",rice,0
same,"Plant response rating, Sedge, Umbrella","sedge, umbrella",0
same,"Plant response rating, Ducksalad",ducksalad,0
same,"Plant response rating, Barnyardgrass",barnyardgrass [2],0
CSc1cccc(C2CNC(=O)C2C(=O)Nc2cccc(F)c2F)c1 (centres unmarked) [Compound 289],"Plant response rating, Barnyardgrass",barnyardgrass [1]; [7],50
same,"Plant response rating, Barnyardgrass",barnyardgrass [1]; [8],70
same,"Plant response rating, Barnyardgrass",barnyardgrass [1]; [9],50
same,"Plant response rating, Barnyardgrass",barnyardgrass [1]; [5],80
same,"Plant response rating, Kochia",kochia; [7],0
same,"Plant response rating, Kochia",kochia; [8],0
same,"Plant response rating, Kochia",kochia; [9],0
same,"Plant response rating, Kochia",kochia; [5],0
same,"Plant response rating, Ragweed",ragweed; [7],0
same,"Plant response rating, Ragweed",ragweed; [8],0
same,"Plant response rating, Ragweed",ragweed; [9],0
same,"Plant response rating, Ragweed",ragweed; [5],0
same,"Plant response rating, Ryegrass, Italian","ryegrass, Italian; [7]",0
same,"Plant response rating, Ryegrass, Italian","ryegrass, Italian; [8]",0
same,"Plant response rating, Ryegrass, Italian","ryegrass, Italian; [9]",0
same,"Ryegrass, Italian plant response rating","ryegrass, Italian; Preemergence, 500 g ai/ha, visual rating on 0 to 100 scale (0 no effect, 100 complete control)",0
same,"Plant response rating, Foxtail, Giant",giant foxtail; [7],30
same,"Plant response rating, Foxtail, Giant",giant foxtail; [8],60
same,"Plant response rating, Foxtail, Giant",giant foxtail; [9],60
same,"Plant response rating, Foxtail, Giant",giant foxtail; [5],90
same,"Plant response rating, Pigweed",pigweed; [7],0
same,"Plant response rating, Pigweed",pigweed; [8],0
same,"Plant response rating, Pigweed",pigweed; [5],0
same,"Plant response rating, Wheat",wheat; [10],0
same,"Plant response rating, Wheat",wheat; [11],0
same,"Plant response rating, Corn",corn; [10],0
same,"Plant response rating, Corn",corn; [11],0
same,"Plant response rating, Blackgrass",blackgrass; [10],0
same,"Plant response rating, Blackgrass",blackgrass; [11],0
same,"Plant response rating, Galium",galium; [10],0
same,"Plant response rating, Galium",galium; [11],0
same,"Plant response rating, Rice",rice,20
same,"Plant response rating, Sedge, Umbrella","sedge, umbrella",0
same,"Plant response rating, Ducksalad",ducksalad,90
same,"Plant response rating, Barnyardgrass",barnyardgrass [2],30

# From patent US10294202B2, “Pyrrolidinones as herbicides” (FMC Corporation, priority 2013, dated 2019)
